Laboratory results: ChEMBL document CHEMBL1201862, “PubChem BioAssay data set” (2004)
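Each compound was tested at five concentrations against cells in 96-well plates for 48 hours. GI50 marks 50% less growth.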 Activity calls are given as the source filed them. No stated cut-off is given here; in the data, active = GI50 up to about 1.1 µM and inactive = higher.

What was measured:
Test in all cases: inhibition of tumour cell growth, NCI panel, 48 h
Hs-578T = tested on: Hs-578T
NCI-H460 = tested on: NCI-H460
BT-549 = tested on: BT-549
KM12 = tested on: KM12
MOLT-4 = tested on: MOLT-4
NCI-H226 = tested on: NCI-H226
COLO 205 = tested on: COLO 205
NCI/ADR-RES = tested on: NCI/ADR-RES
A498 = tested on: A498
TK-10 = tested on: TK-10
SF-295 = tested on: SF-295
Malme-3M = tested on: Malme-3M
OVCAR-4 = tested on: OVCAR-4
786-0 = tested on: 786-0
SNB-75 = tested on: SNB-75
MDA-MB-231 = tested on: MDA-MB-231
CCRF-CEM = tested on: CCRF-CEM
SF-539 = tested on: SF-539
UACC-62 = tested on: UACC-62
HCT-116 = tested on: HCT-116
HOP-62 = tested on: HOP-62
M14 = tested on: M14
OVCAR-8 = tested on: OVCAR-8
SK-OV-3 = tested on: SK-OV-3
SW-620 = tested on: SW-620
HCT-15 = tested on: HCT-15
UACC-257 = tested on: UACC-257
DU-145 = tested on: DU-145
PC-3 = tested on: PC-3
A549 = tested on: A549
SNB-19 = tested on: SNB-19
SK-MEL-5 = tested on: SK-MEL-5
SK-MEL-2 = tested on: SK-MEL-2
U-251 = tested on: U-251
K562 = tested on: K562
NCI-H23 = tested on: NCI-H23
IGROV-1 = tested on: IGROV-1
SF-268 = tested on: SF-268
MCF7 = tested on: MCF7
HL-60 = tested on: HL-60
RXF 393 = tested on: RXF 393
CAKI-1 = tested on: CAKI-1
RPMI-8226 = tested on: RPMI-8226
SN12C = tested on: SN12C
MDA-N = tested on: MDA-N
OVCAR-3 = tested on: OVCAR-3
UO-31 = tested on: UO-31
HT-29 = tested on: HT-29
SK-MEL-28 = tested on: SK-MEL-28
OVCAR-5 = tested on: OVCAR-5
MDA-MB-435 = tested on: MDA-MB-435
SR = tested on: SR
LOX IMVI = tested on: LOX IMVI

Measured: GI50

COC(=O)c1c(O)ccc2c1c1c(n2Cc2ccccn2)C(=O)c2ccccc2C1
> 100 µM: HCT-15
inactive: Hs-578T > 100 µM | NCI-H460 50.2 µM | BT-549 > 100 µM | KM12 > 100 µM | MOLT-4 95.1 µM | NCI-H226 > 100 µM | COLO 205 13.5 µM | NCI/ADR-RES 44.4 µM | A498 > 100 µM | TK-10 > 100 µM | SF-295 > 100 µM | Malme-3M > 100 µM | OVCAR-4 19.4 µM | 786-0 > 100 µM | SNB-75 > 100 µM | MDA-MB-231 > 100 µM | CCRF-CEM 27.9 µM | SF-539 87.9 µM | UACC-62 > 100 µM | HCT-116 50 µM | HOP-62 > 100 µM | M14 > 100 µM | OVCAR-8 > 100 µM | SK-OV-3 96.2 µM | SW-620 > 100 µM | UACC-257 82.8 µM | DU-145 > 100 µM | PC-3 16.5 µM | A549 66.1 µM | SNB-19 > 100 µM | SK-MEL-5 > 100 µM | SK-MEL-2 75 µM | U-251 > 100 µM | K562 > 100 µM | NCI-H23 > 100 µM | IGROV-1 71 µM | SF-268 74.5 µM | MCF7 22.9 µM | HL-60 > 100 µM | RXF 393 31.6 µM | CAKI-1 19.1 µM | RPMI-8226 13 µM | SN12C > 100 µM | MDA-N > 100 µM | OVCAR-3 > 100 µM | UO-31 54.5 µM | HT-29 32.8 µM | SK-MEL-28 > 100 µM | OVCAR-5 49.8 µM | MDA-MB-435 86.5 µM | SR > 100 µM | LOX IMVI > 100 µM
